Data published in US20100015174A1, “METHOD TO CONTROL DENGUE VIRUSES IN HUMANS BY PICOLINIC ACID AND DERIVATIVES THEREOF” (priority 2008, published 2010).
≈ marks a conversion by molar mass, not a printed value. Like-named read-outs stand apart in the source and are kept apart here.

What was measured:
[1] = tested on: HCV replicon; experiment: HCV replicon (qRTCPCR/iCycler) in Ava.5 cell line; format: cell-based, Human Hepatitis C Virus; details: Hepatitis C virus, Ava5, 24 h, read-out: inhibition of HCV replicon
Procedure: (§1) Here we determine the effects of Picolinic acid and Fusaric Acid on HCV replicon cell lines. The HCV replicons (qRTCPCR/iCycler) were contained in the Ava.5 cell line tested. Normalization by OD and serial dilutions were done in the untreated cell line. The experimental design was as follows: cells were grown in 12 well cell culture plates; the compounds interaction was done for 24 hours; at extraction, cell confluence was 75%; and RNA was extracted using Qiagen Rneasy extraction kit.

[2] = tested on: CMV AD 169 strain; experiment: CMV replication in HEL-299 cells (virus titration); format: cell-based, Cytomegalovirus; details: Human betaherpesvirus 5, 72 h, 3 days, read-out: EC50 for inhibition of CMV replication
Procedure: CMV AD 169 strain (ATCC) was used in the experiments. A CMV susceptible cell line, human fibroblast cells HEL-299 (ATCC), was used in the plaque reduction assays.
90% confluent HEL-299 cells were washed and then Infected with CMV AD169 at 0.5 moi for 2 h at 37° C. Following removal of viral inoculums, the Infected cells were washed and exposed to different concentrations of PA (final concentrations: 0, 10, 100, 250, 500, and 1000 ug/mL) or FA (final concentrations: 0, 1, 10, 30, 60, and 100 ug/mL for 3 days. The culture medium was collected for titration of released virions and the cells were harvested for titration of intracellular virions.
90% confluent HEL-299 cells in 24 well plates were Infected with 200 uL of CMV dilutions at 37° C. for 2 h. Following removal of virus inoculums, the infected cells were washed with PBS and overlaid with 0.5% methylcellulose in culture medium. We then treated CMV Infected cells for 3 days at 37° C. with different concentrations of PA and FA. The culture medium was collected for titration of released virus and the cells were harvested for titration of intracellular virus.

[3] = tested on: human hepatitis B virus (HBV); experiment: HBV DNA by real-time PCR after 9-day treatment of HepG2.2.15 cells; format: cell-based; details: 9 days; for EC50: 216 h, HepG2.2.15 cells, read-out: overall EC50 against HBV; for inhibition at 60 µg/mL / inhibition at 250 µg/mL: HepG2.2.15, 216 h; for inhibition at 60 µg/mL: 60 ug/mL; for inhibition at 250 µg/mL: 250 ug/mL
Procedure: Here we evaluate the antiviral efficacy of picolinic acid and fusaric acid against human hepatitis B virus (HBV). HepG2.2.15 cells, a cell line that was stably transfected with HBV genome was used to study the antiviral effects of PA and FA against HBV. HepG2.2.15 cells were cultured under standard conditions. HepG2.2.15 cells were seeded in a 96-well plate at 2×10^4 cells/well and grown for 24 hours. The medium was replaced with 100 uL of medium containing PA at increasing concentrations (0, 10, 100, 250, and 500 ug/mL). The concentrations of FU used were 0, 1, 10, 30, 60, and 100 ug/mL. The cells were incubated at 37° C. for 9 days. The control medium and the medium containing the antivirals were changed every 24 hours. At day 9, the culture medium containing the released HBV virions was collected, the cells washed with PBS, and lysed with lysis buffer. All samples were stored at −70° C. until analyzed.
HBV DNA from drug-treated […] cell culture medium and cell lysates was extracted using QIAamp DNA mini kit, according to manufacturer's specifications.
PCR reaction was performed in 20 uL, comprising the following compounds: dH2O; 25 mM MgCl2; 10 uM sense primer; 10 uM antisense primer; LightCycler Probe 1 (fluorescent-labeled, 5 uM); LightCycler Probe 2 (LC Red 640-labeled, 10 uM); LC FastStart DNA Master Hyb Probes; and Uracil DNA glycosylase (1 uL).
PCR mix was aliquoted and 5 uL DNA template was then added to the PCR mix. A range of HBV plasmid DNA (1×10^8, 1×10^7, 1×10^6, [ . . . ], 1×10^2, 25 copies) were used as standards for quantitative analysis.
To study the antiviral activities of PA and FA against HBV, HepG2.2.15 cells were incubated with increasing concentrations of test compounds for 9 days with medium change daily. At day 9, the medium containing secreted HBV virions was collected and used for extraction of extracellular virus DNA. The cells were lysed by 0.5% SDS and used for extraction of intracellular virus DNA. DNA was extracted using Qiagen column and then quantitatively detected by real-time PCR assay.

[4] = tested on: BVDV Trangie strain; experiment: BVDV virus yield reduction in MDBK cells (immunoperoxidase staining); format: cell-based, Bovine Viral Diarrhea Virus; details: 3 days
Procedure: BVDV Trangie strain, a well characterized non-cytopathic Australian isolate, was used in this study. The virus was cultured in MDBK cells (ATCC), and titred by immunoperoxidase staining.
80% confluent MDBK cells were infected with BVDV at a moi of 0.01 at 37° C. for 1 h. After viral inoculums was removed, Infected cells were washed with PBS and then incubated with culture medium containing PA at concentrations of 0, 10, 100, 250, 500, and 1000 ug/mL or FA at concentrations of 0, 1, 10, 30, 60, and 100 ug/mL at 37° C. for 3 days. The culture medium was then collected and stored at −70° C. The cells were harvested by one frozen/thawed cycle and centrifugation to pellet debris. The supernatant was collected and stored at −70° C.
PA of FA-treated cultures were 10-fold serially diluted, 50 uL of each dilution was added to 80% confluent MDBK cells in a 96-well plate, and incubated at 37° C. for 1 h. The innoculum was removed by washing with PBS once. The Infected cells were covered with 200 uL of 0.5% methylcellulose in culture medium and incubated at 37° C. for 2 days. After washing with PBS, the cells were fixed with 200 uL of 5% formalin in PBS for 10 min at room temperature. Subsequently, they were washed with 0.05% Tween −20/dH2O three times. Then, the cells were incubated with 50 uL mixture of three monoclonal antibodies against BVDV NS3 for 80 min at 37° C. in a humidified box. The cells were then washed as above and incubated with 50 uL of rabbit anti-mouse IgG Peroxidase-conjugate (DAKO) diluted 1:200 in 1% gelatin/PBS for 90 min at 37° C. in a humidified box. After final washes as described above, 200 uL of 3-amino-9-ethyl-carbazole was added to each well and incubated at room temperature for 30 min until the cells were stained.
The BVDV closely resembles HCV persistent Infection. After Infection with BVDV cultured MBDK were treated with different concentrations of PA or FA for 3 days. The antiviral effect was determined by virus yield reduction assays (i.e. staining using monoclonal antibodies against NS3, or titration of intracellular and extracellular virus by immunoperoxidase staining.

[5] = tested on: Ava.5 cell line; experiment: Cytotoxicity by OD in HCV replicon cells; format: cell-based
Procedure: as §1

[6] = read-out: inhibition of intracellular HBV DNA
[7] = read-out: inhibition of released HBV DNA

SMILES: CCCCc1ccc(C(=O)O)nc1 [FA, fusaric acid]
- inhibition at 100 µg/mL [1]: ~60%
- EC50 [2]: ~60 µg/mL (≈ 335 µM)
- EC50 [3]: > 60 µg/mL
- inhibition at 60 µg/mL [3, 6]: 28%
- inhibition at 60 µg/mL [3, 7]: 76.5%
- BVDV virus yield ([4]; FA 1 μg/ml): 2.4 × 10^5 (pfu/ml)
- BVDV virus yield, % of control ([4]; FA 1 μg/ml): 80.0 % of control
- BVDV virus yield ([4]; FA 10 μg/ml): 1.8 × 10^5 (pfu/ml)
- BVDV virus yield, % of control ([4]; FA 10 μg/ml): 60.0 % of control
- BVDV virus yield ([4]; FA 30 μg/ml): 2.5 × 10^5 (pfu/ml)
- BVDV virus yield, % of control ([4]; FA 30 μg/ml): 83.3 % of control
- BVDV virus yield ([4]; FA 60 μg/ml): 1.5 × 10^5 (pfu/ml)
- BVDV virus yield, % of control ([4]; FA 60 μg/ml): 50.0 % of control
- activity against BVDV ([4]; MDBK cells): active
- overt cytotoxicity by OD ([5]; 100 ug/mL): no overt cytotoxicity

SMILES: O=C(O)c1ccccn1 [PA, picolinic acid]
- inhibition at 250 µg/mL [1]: ~60%
- EC50 [2]: ~230 µg/mL (≈ 1870 µM)
- EC50 [3]: ~139 µg/mL (≈ 1130 µM)
- inhibition at 250 µg/mL [3, 6]: 79.4%
- inhibition at 250 µg/mL [3, 7]: 72.3%
- reduction of BVDV virus yield ([4]; 250 ug/mL): 76%
- EC50 ([4]; Bovine viral diarrhea virus isolates and strains, 72 h, MDBK cells, read-out: EC50 against BVDV): 60 µg/mL (≈ 487 µM)
- activity against BVDV ([4]; MDBK cells): active
- BVDV virus yield ([4]; PA 10 μg/ml): 3.2 × 10^5 (pfu/ml)
- BVDV virus yield, % of control ([4]; PA 10 μg/ml): 78.0 % of control
- BVDV virus yield ([4]; PA 100 μg/ml): 2.5 × 10^5 (pfu/ml)
- BVDV virus yield, % of control ([4]; PA 100 μg/ml): 61.0 % of control
- BVDV virus yield ([4]; PA 250 μg/ml): 1.0 × 10^5 (pfu/ml)
- BVDV virus yield, % of control ([4]; PA 250 μg/ml): 24.4 % of control
- BVDV virus yield ([4]; PA 500 μg/ml): 0.35 × 10^5 (pfu/ml)
- BVDV virus yield, % of control ([4]; PA 500 μg/ml): 8.5 % of control
- overt cytotoxicity by OD ([5]; 250 ug/mL): no overt cytotoxicity
